Three compounds from ChEMBL document CHEMBL4613317, “Substituted Naphthalenediimide Compounds Bind Selectively to Two Human Quadruplex Structures with Parallel Topology” (ACS Med Chem Lett, 2020) can be followed below.

The source made the active and inactive calls. No cut-off for these calls is given here. Some results are limits rather than exact numbers.

For assay [1], the target named is Quadruplex DNA. In words: Binding affinity to human HTR G4-quadruplex DNA assessed as dissociation equilibrium binding constant by intrinsic fluorescence titration based fluorescence spectrophotometry. It is filed as nucleic-acid assay.
The species entered for assay [2] is Homo sapiens. In words: Selectivity index, ratio of Kd for biotin-labeled human HTR G4-quadruplex DNA to Kd for biotin-labeled human TERRA G4-quadruplex RNA by SPR analysis. (Surface plasmon resonance follows binding to a sensor surface in real time, without labels.)
The test system of assay [3] is Quadruplex DNA. The assay is described as follows: Induction of parallel human TERT G4-quadruplex DNA structural changes up to 20 uM by circular dichroism analysis. It is filed as nucleic-acid assay. A general note: Circular dichroism is widely used to follow secondary structure.
The subject of assay [4] is Quadruplex DNA. The assay is described as follows: Binding affinity to G-quartet terminal of human TERT G4-quadruplex DNA with parallel topology up to 20 uM by circular dichroism analysis. It is filed as nucleic-acid assay.
The test system of assay [5] is DNA. The assay is described as follows: Binding affinity to human TERT hairpin duplex DNA assessed as change in melting temperature by UV-visible spectrophotometry. It is filed as nucleic-acid assay.
Assay [6] concerns the target Quadruplex DNA. In words: Binding affinity to human TERRA G4-quadruplex RNA assessed as dissociation equilibrium binding constant by fluorescence anisotropy titration based fluorescence spectrophotometry. It is filed as nucleic-acid assay.
Assay [7] relates to Quadruplex DNA. In words: Binding affinity to human TERT G4-quadruplex DNA assessed as change in melting temperature by UV-visible spectrophotometry. It is filed as nucleic-acid assay.
Assay [8] has as its system Quadruplex DNA. The assay is described as follows: Induction of parallel human TERRA G4-quadruplex RNA structural changes up to 20 uM by circular dichroism analysis. It is filed as nucleic-acid assay.
The test system of assay [9] is Quadruplex DNA. In words: Binding affinity to human HTR G4-quadruplex DNA assessed as change in melting temperature by UV-visible spectrophotometry. It is filed as nucleic-acid assay.
Assay [10] deals with Quadruplex DNA. In words: Binding affinity to G-quartet terminal of human TERRA G4-quadruplex RNA with parallel topology up to 20 uM by circular dichroism analysis. It is filed as nucleic-acid assay.
The target in assay [11] is DNA. In words: Binding affinity to biotin-labeled duplex DNA AAAGAACTTT (unknown origin) assessed as dissociation equilibrium binding constant by SPR analysis. It is filed as nucleic-acid assay.
Assay [12] addresses Quadruplex DNA. In words: Binding affinity to biotin-labeled human TERT G4-quadruplex DNA assessed as dissociation equilibrium binding constant by SPR analysis. It is filed as nucleic-acid assay.
Assay [13] addresses Quadruplex DNA. The assay is described as follows: Binding affinity to human TERT G4-quadruplex DNA assessed as dissociation equilibrium binding constant by intrinsic fluorescence titration based fluorescence spectrophotometry. It is filed as nucleic-acid assay.
The target of assay [14] is Quadruplex DNA. The assay is described as follows: Binding affinity to biotin-labeled human HTR G4-quadruplex DNA assessed as dissociation equilibrium binding constant by SPR analysis. It is filed as nucleic-acid assay.
The species entered for assay [15] is Homo sapiens. In words: Selectivity index, ratio of Kd for human HTR G4-quadruplex DNA to Kd for human TERRA G4-quadruplex RNA by fluorescence spectrophotometry.
Assay [16] is filed under the species Homo sapiens. The assay is described as follows: Selectivity index, ratio of Kd for biotin-labeled human HTR G4-quadruplex DNA to Kd for biotin-labeled human TERT G4-quadruplex DNA by SPR analysis.
The target of assay [17] is Quadruplex DNA. The assay is described as follows: Binding affinity to biotin-labeled human TERRA G4-quadruplex RNA assessed as dissociation equilibrium binding constant by SPR analysis. It is filed as nucleic-acid assay.
For assay [18], the system named is Quadruplex DNA. The assay is described as follows: Induction of (3+1) hybrid structural changes of human HTR G4-quadruplex DNA to antiparallel structure at 20 uM by circular dichroism analysis. It is filed as nucleic-acid assay.
The test system of assay [19] is Quadruplex DNA. The assay is described as follows: Binding affinity to end quartet of (3+1) hybrid structure of human HTR G4-quadruplex DNA up to 20 uM by circular dichroism analysis. It is filed as nucleic-acid assay.
The species named for assay [20] is Homo sapiens. In words: Selectivity index, ratio of Kd for human HTR G4-quadruplex DNA to Kd for human TERT G4-quadruplex DNA by intrinsic fluorescence titration based fluorescence spectrophotometry.

Broadly, the Kd is the constant that tells how readily two partners part at equilibrium. A word on the ΔTm: it is the change in melting temperature against a reference sample. For the compound `O=C1c2ccc3c4c(c(NCCN5CCCC5)cc(c24)C(=O)N1CCCN1CCOCC1)C(=O)N(CCCN1CCOCC1)C3=O`, the Kd in assay [1] is 94 nM; in assay [6] it was 3 nM; in [11], more than 100 nM; in [12] it was 12 nM; in [13], 16 nM; in assay [14], 82 nM. The Kd in [17] came to 4 nM. Moreover, the Selectivity Index is 5 in assay [2], 5 in assay [15] and 7 in assay [16]. The result in [3] and in assay [8] was inactive. Besides, the outcome in assay [4], in [10], in [18] and in assay [19] was Active. The ΔTm was found to be 2 °C in assay [5], 13 °C in assay [7] and 5 °C in [9].
Turning to `O=C1c2cc(-c3ccc(CN4CCCC4)cc3)c3c4c(cc(NCCN5CCCC5)c(c24)C(=O)N1CCCN1CCOCC1)C(=O)N(CCCN1CCOCC1)C3=O` [QN-302], the dissociation constant (Kd) is 29 nM in assay [1]; 2 nM in assay [6]; more than 100 nM in assay [11]; 4 nM in [12]; 4 nM in assay [13]; 28 nM in assay [14]. In assay [17], the Kd was 3 nM. Moreover, the Selectivity Index in [2], in assay [15] and in assay [20] was 5 in each case. Further, the result in assay [3] and in assay [8] was inactive. The outcome in assay [4], in assay [10], in [18] and in assay [19] was Active. Also, the shift in melting temperature (ΔTm) in [5] came to 2 °C; in [7], 18 °C; in [9] it was 10 °C.
As to `CN1CCN(CCCNc2cc3c4c(c(NCCCN5CCN(C)CC5)cc5c4c2C(=O)N(CCCN2CCOCC2)C5=O)C(=O)N(CCCN2CCOCC2)C3=O)CC1`, the Kd stood at 10 nM in assay [1]; 2 nM in assay [6]; 2 nM in assay [12]; 4 nM in assay [13]; 5 nM in [14]; 3 nM in [17]. The outcome in assay [3] and in assay [8] was inactive. In addition, the result in [4], in assay [10], in assay [18] and in [19] was Active. The figures for the shift in melting temperature (ΔTm) in assay [5] and in assay [9] were less than 2 °C and 11 °C, respectively.
